Paper PMC8517038 (Molecular psychiatry, 2021)
Where two headings read alike, the source gives them in different places.

Tests used:
[1] = target: PCP binding site of the NMDAR (Rattus norvegicus, UniProt P35439); assay: Binding and enzyme target profile screen; settings: 10 μM
mu-opioid receptor (MOR) = mu-opioid receptor (MOR) (Homo sapiens, UniProt P35372); assay: Binding and enzyme target profile screen; settings: 10 μM
KOR [2] = target: T1, KOR (Homo sapiens, UniProt P41145); assay: Binding and enzyme target profile screen
Sigma-1 = Sigma-1 (Rattus norvegicus, UniProt Q9R0C9); assay: Competitive radioligand binding, [3H]
MOR [3] = target: T2, MOR (Homo sapiens, UniProt P35372); assay: cAMP accumulation BRET; assay type: cell-based
KOR [4] = target: T1, KOR; assay: cAMP accumulation BRET; assay type: cell-based
MOR [5] = target: T2, MOR; assay: β-arrestin recruitment BRET in transfected HEK-293 cells; assay type: cell-based
KOR [6] = target: T1, KOR; assay: as above; assay type: cell-based
dopamine tone [7] = assay: [18F]-Fallypride PET; assay type: in vivo, rat; settings: 10 mg/kg IV infusion for 40 min
locomotor activity = assay: Locomotor activity in mice; assay type: in vivo; settings: for acute locomotor activity: male mice, 5, 10 and 20 mg/kg IP every 30 min
locomotor sensitization = assay: Locomotor; assay type: in vivo; settings: male mice; for locomotor (psychomotor) sensitization over days: 20 mg/kg IP for 3 days
[8] = test system: conditioned place preference; assay: Conditioned place preference in mice; assay type: in vivo; settings: male mice, 10 mg/kg IP, 6 days pairing
drug self-administration = assay: Intravenous self-administration in rats; assay type: in vivo; settings: for dose response curve of self-administration: 0.125, 0.25, 0.5, 1.0 mg/kg/infusion, FR1; for extinction of drug self-administration: after retraining on FR1; for self-administration during training: male and female rats, 0.5 mg/kg/infusion, FR1 20-s timeout, 16 sessions
[9] = test system: conditioned place preference; settings: 40 mg/kg IP, cited from earlier work
[10] = test system: morphine CPP and opioid withdrawal; settings: mice; cited from earlier work
[11] = test system: methamphetamine-induced locomotion; settings: 10 mg/kg/day, twice weekly for 8 weeks; cited from earlier work
dopamine tone [12] = settings: awake monkeys; cited from earlier work
[13] = test system: NMDARs over opioid receptors; settings: canonical high affinity NMDAR antagonist; no reference given; cited from earlier work

T2 sequence (P35372 whole entry): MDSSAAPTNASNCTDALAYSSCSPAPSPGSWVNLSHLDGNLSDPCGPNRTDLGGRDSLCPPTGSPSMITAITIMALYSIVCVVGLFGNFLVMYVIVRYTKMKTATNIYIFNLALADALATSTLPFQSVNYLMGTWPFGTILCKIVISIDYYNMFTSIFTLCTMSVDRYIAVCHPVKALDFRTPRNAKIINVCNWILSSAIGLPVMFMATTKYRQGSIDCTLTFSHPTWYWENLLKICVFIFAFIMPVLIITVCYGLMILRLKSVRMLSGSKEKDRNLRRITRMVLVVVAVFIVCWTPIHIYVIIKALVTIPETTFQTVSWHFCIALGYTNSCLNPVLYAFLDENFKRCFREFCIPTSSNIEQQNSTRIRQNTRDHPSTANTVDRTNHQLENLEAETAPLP
T1 sequence (P41145 whole entry): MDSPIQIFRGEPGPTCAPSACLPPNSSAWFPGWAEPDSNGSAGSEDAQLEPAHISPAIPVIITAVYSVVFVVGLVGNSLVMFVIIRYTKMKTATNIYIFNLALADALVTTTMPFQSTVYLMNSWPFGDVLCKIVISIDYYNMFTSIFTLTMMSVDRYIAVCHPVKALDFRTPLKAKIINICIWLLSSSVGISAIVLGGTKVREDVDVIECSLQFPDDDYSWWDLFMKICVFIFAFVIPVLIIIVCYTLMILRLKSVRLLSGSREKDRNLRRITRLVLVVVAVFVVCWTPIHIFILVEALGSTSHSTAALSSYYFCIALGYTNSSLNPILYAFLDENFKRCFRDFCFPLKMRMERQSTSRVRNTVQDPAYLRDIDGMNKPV
mu-opioid receptor (MOR), sequence (P35372 whole entry): as the sequence (P35372 whole entry) above
Sigma-1, sequence (Q9R0C9 whole entry): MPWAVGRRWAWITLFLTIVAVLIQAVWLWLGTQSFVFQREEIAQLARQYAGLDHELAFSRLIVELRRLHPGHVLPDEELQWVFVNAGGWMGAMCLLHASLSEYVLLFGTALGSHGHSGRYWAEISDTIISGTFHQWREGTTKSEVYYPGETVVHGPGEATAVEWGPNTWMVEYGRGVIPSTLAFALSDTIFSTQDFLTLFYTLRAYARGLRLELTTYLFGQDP

SMILES	hit (>50% inhibition) at PCP binding site of the NMDAR [1]	hit (>50% inhibition) at MOR (mu-opioid receptor (MOR))	mode of action at MOR, cAMP assay (MOR [3])	mode of action at KOR, cAMP assay (KOR [4])	activation of the β-arrestin pathway, MOR (MOR [5])	activation of the β-arrestin pathway, KOR (KOR [6])	global extracellular dopamine levels in the dorsal striatum ([18F]fallypride) (dopamine tone [7])	acute locomotor activity (locomotor activity)	locomotor activity after 20 mg/kg IP injection (locomotor sensitization)	locomotor (psychomotor) sensitization over days (locomotor sensitization)	conditioned place preference for drug-paired chamber [8]	dose response curve of self-administration (drug self-administration)	extinction of drug self-administration (drug self-administration)	self-administration during training (drug self-administration)	other results
CN[C@@]1(c2ccccc2Cl)CCCCC1=O [(R)-ketamine]	positive hit	not for (R)-ketamine	weaker partial agonist	weaker partial agonist	Neither (S)- nor (R)-ketamine activated	Neither (S)- nor (R)-ketamine activated	Neither (S)- nor (R)-ketamine significantly changed	increasing it only at the 20 mg/kg dose	increased locomotor activity	but not (R)-ketamine induced psychomotor sensitization	not for the (R)-ketamine-paired chamber	did not show this pattern of responding	rapid extinction of drug seeking	weaker and less reliable	inhibition of KOR binding (KOR [2]; 10 μM): ~ 13%; Ki (Sigma-1; read-out: Ki sigma-1, rat whole brain, [3H](+)pentazocine): 27 ± 3 µM; Emax MOR, cAMP assay (MOR [3]; % morphine maximum response): 39 ± 3%; EC50 (MOR [3]; read-out: EC50 MOR, cAMP assay, HEK-293 transfected with MOR): 34 ± 14 µM; Emax KOR, cAMP assay (KOR [4]; % morphine maximum response): < 50%; EC50 (KOR [4]; read-out: EC50 KOR, cAMP assay, HEK-293 transfected with KOR): > 100 µM; cross-sensitization to (S)-ketamine (locomotor sensitization; repeated 20 mg/kg IP): did not cross-sensitize to (S)-ketamine; CPP in mice ([9]; ref 68): did not produce CPP; CPP in mice ([9]; ref 71): produced CPP in mice; morphine CPP and naloxone-precipitated opioid withdrawal [10]: decreases morphine CPP and naloxone-precipitated opioid withdrawal
CN[C@]1(c2ccccc2Cl)CCCCC1=O [(S)-ketamine]	positive hit	identified as a hit for (S)-ketamine	partial agonist	full agonist	Neither (S)- nor (R)-ketamine activated	Neither (S)- nor (R)-ketamine activated	Neither (S)- nor (R)-ketamine significantly changed	more potent than (R)-ketamine in increasing locomotor activity	increased locomotor activity	showed locomotor sensitization over days	significant preference for the (S)-ketamine-paired chamber	characteristic inverted U-shaped dose response curve	rapid extinction of drug seeking	self-administered (S)-ketamine with a significant escalation of drug intake	inhibition at 10 µM (KOR [2]; read-out: inhibition of KOR binding): ~35%; Ki (Sigma-1): 131 ± 15 µM; EC50 (MOR [3]): 9 ± 2 µM; Emax (MOR [3]; HEK293, read-out: Emax MOR, cAMP assay): 48 ± 3%; EC50 (KOR [4]): 16 ± 4 µM; Emax (KOR [4]; HEK293, read-out: Emax KOR, cAMP assay): 84 ± 5%; average self-administered intake (drug self-administration; dose response test): ~ 15 mg/kg/h; methamphetamine-induced locomotion in mice [11]: led to increased methamphetamine-induced locomotion; [11C]raclopride binding (dopamine tone) (dopamine tone [12]): decreases in [^11C]raclopride binding
C[C@]12N[C@H](Cc3ccccc31)c1ccccc12 [MK-801]	–	–	–	–	–	–	–	–	–	–	–	–	–	–	selectivity for NMDAR over opioid receptors [13]: ~ 1000 fold
O=C1CC[C@@]2(O)[C@H]3Cc4ccc(O)c5c4[C@@]2(CCN3CC2CC2)[C@H]1O5 [naltrexone]	–	–	–	–	–	–	–	–	–	–	–	–	–	–	effect on (S)-ketamine-induced locomotor activity (locomotor activity; naltrexone 10 mg/kg IP pretreatment, male mice): partially blocked
